pIC50: −log10 of the molar value.
Assays:
human SPAK 452-547(end) = target: T1, human SPAK 452-547(end) (Homo sapiens, UniProt Q9UEW8); assay: Fluorescence polarization, SPAK-WNK peptide interaction; assay type: binding; settings: for pIC50: Lumio-Green-labelled WNK peptide 10 nM, read-out: IC50, concentration-dependent decrease in fluorescence polarization; for disruption of binding between WNK4 and the SPAK CCT domain: fluorescence polarization
T1 construct: Purified human SPAK 452-547(end); made in house; host or cells: E. coli
Experimental: Fluorescence polarization measurements were performed at 25° C. with purified SPAK proteins in 50 mM Tris/HCl, pH 7.5, 150 mM NaCl and 2 mM DTT. The concentration of SPAK proteins was determined by measuring their absorbance at 280 nm and calculated using the molar absorption coefficient determined by the ProtParam Online tool (Gasteiger et al., 2001). All peptides ([…] [EP4543] and […] [EP4544]; SEQ ID NO:2 and SEQ ID NO:3, respectively) contained an N-terminal linker required for conjugating to the Lumio Green fluorophore ([…]; SEQ ID NO:4) and were initially re-suspended in 50 mM ammonium bicarbonate, pH 8. Peptide labelling was achieved by incubating […] of each peptide in a 0.5 ml reaction mixture of 20 μM Lumio Green in 25 mM Tris/HCl, pH 7.5, 200 mM NaCl and 5 mM 2-mercaptoethanol. Reactions were left to proceed in the dark for 2 h. The peptides were dialysed for 4 h into 25 mM Tris/HCl, pH 7.5, 200 mM NaCl and 5 mM 2-mercaptoethanol using a Micro DispoDIALYZER with a 100 Da molecular-mass cut-off (Harvard Apparatus), and then for another 12 h with changed buffer. For fluorescence polarization, mixtures were set up containing the indicated concentration of protein, 10 nM Lumio-Green-labelled peptide in a final volume of 30 μl. All individual bindings were performed in duplicate with at least 12 data points per curve. Fluorescence polarization was measured using a BMG PheraStar plate reader, with an excitation wavelength of 485 nm and an emission wavelength of 538 nm, and measurements were corrected to the fluorescent probe alone. Data analysis and graphing were then performed in GraphPad Prism7; a one-site specific binding model was assumed (Y=Bmax*X/[Kd+X]) and the fitted dissociation constant computed. All experimental bindings were repeated at least twice.
Referring to FIG. 5A, analysis of SPAK-WNK interaction by fluorescence polarization is shown. Purified human SPAK 452-547(end) and human SPAK 452-547 with L491A (equivalent to L502 in mouse) were diluted appropriately and mixed at a 1:1 volume ratio with 20 nM Lumino-Green-labelled WNK peptide (RFQV or AFQV) to the concentration stated in the Figure (with the final peptide concentration consistent at 10 nM), and fluorescent polarization measurements were made. Binding curves, assuming one-site-specific binding, were then generated with Prism6 using milli-polarization (mP) units.

[1] = test system: KCC2 pThr1007 and NKCC1 pThr203/207/212; assay: In vivo pharmacodynamic analysis, brain; parameters: species or system mouse; settings: naïve brains; 60 minutes after administration
Experimental: Male C57BL/6j wild-type mice (6 weeks old) were purchased from Charles River Laboratories Edinburgh UK. ZT-1a was dissolved in DMSO (Sigma) solution and administered by subcutaneous injection into wild type male C57BL/6 mice at doses of 0, 3, 10, 30, 50 and 100 mg/kg. 50 mg/kg Closantel (1) was injected as a comparative control. Age-matched SPAK^502A/502A knock-in mice were also used as comparative controls (Zhang et al. (2015) Human molecular genetics 24: 4545-455). Control mice were treated with an equal volume of DMSO solution. One hour after administration, mice were sacrificed by cervical dislocation, and kidney and brain tissues were rapidly dissected and snap-frozen in liquid nitrogen. The SPAK^502A/502A knock-in mouse was established and maintained under specific pathogen-free conditions at the University of Dundee (UK) as described in our recent study.
Referring to FIG. 9A and FIG. 9B, in vivo pharmacodynamic analysis of ZT-1a was performed. ZT-1a and Closantel were administered via subcutaneous injection at the indicated doses. Brain (FIG. 9A) and kidney (FIG. 9B) tissues were collected, and endogenous proteins were subjected to immunoblot probed with SPAK, NKCC1 and NCC phospho-specific antibodies.

pSPAK = assay: IVH-induced phosphorylation in rat choroid plexus, ICV delivery; assay type: in vivo; settings: 48 hrs post-IVH, n=3
[2] = test system: mouse model of ischemic stroke; assay: Infarct volume and hemispheric swelling after transient MCAO; assay type: in vivo
Source text: Under an operating microscope, the left common carotid artery was exposed through a midline incision. […] The ECA was dissected further distally and permanently ligated. The internal carotid artery (ICA) was isolated and carefully separated from the adjacent vagus nerve. A 12 mm length of silicon-coated nylon filament (size 6-0, native diameter 0.11 mm; diameter with coating 0.21+/−0.02 mm; coating length 5-6 mm; Doccol Corporation, Sharon, Mass.) was introduced into the ECA lumen through a puncture. The silk suture around the ECA stump was tightened around the intraluminal nylon suture to prevent bleeding. The nylon suture was then gently advanced from the ECA to the ICA lumen until mild resistance was felt (˜9 mm). For reperfusion, the suture was withdrawn 50 min after MCAO to restore blood flow. Body temperature was maintained for the duration of the experiment between 36.5° C.-37° C. with a small animal heating pad (Kent Scientific).
At 24 hours reperfusion, mice were anesthetized with 5% isoflurane and then decapitated. Coronal brain tissue slices (2 mm) were stained for 20 minutes at 37° C. with 1% 2,3,5-triphenyltetrazolium chloride monohydrate (TTC; Sigma, St Louis, Mo.) in PBS solution. […] The extent of hemispheric swelling was calculated using the following equation: swelling (% contralateral side)=[(volume of ipsilateral hemisphere−volume of contralateral hemisphere)/volume of contralateral hemisphere]×100 (Bhuiyan et al. (2017) Journal of cerebral blood flow and metabolism: official journal of the International Society of Cerebral Blood Flow and Metabolism 37: 2780-2794).
Referring to FIG. 11A, an experimental design of ischemic stroke study is shown. Vehicle or ZT-1a is administered at 3 hrs and 8 hrs post-MCAO.
Referring to FIG. 11B, representative images and quantification of infarct volume and hemispheric swelling in TTC-stained coronal sections of mouse brains 24 hrs post-MCAO are shown. Vehicle (DMSO, 2 ml/kg) or ZT-1a (2.5 or 5.0 mg/kg) were administered with an initial half dose at 3 hrs and the second half dose at 8 hr reperfusion via intra-peritoneal injection (i.p.). Data are mean±SD, n=6-12 per group (male). * p<0.05.

| Compound | pIC50 (human SPAK 452-547(end)) | disruption of binding between WNK4 and the SPAK CCT domain (human SPAK 452-547(end)) | effect on KCC2 (pThr1007) or NKCC1 (pThr203/207/212) phosphorylation [1] | reduction of IVH-induced expression of pSPAK (pSPAK) [%] | infarct volume ([2]; 5 mg/kg i.p., post-stroke from 3 hr reperfusion, 24 hrs post-MCAO, mean±SD) [mm^3] | decrease of infarct volume ([2]; 5 mg/kg i.p., post-stroke from 3 hr reperfusion, 24 hrs post-MCAO, vs vehicle) [%] | reduction of cerebral hemispheric swelling ([2]; 2.5 or 5 mg/kg, 24 hrs post-MCAO, vs vehicle) [%] | effect on infarct volume and hemispheric swelling ([2]; 0.1 mg/kg dose) | effect on infarct volume and hemispheric swelling ([2]; 1.0 or 2.5 mg/kg at 3 hr and at 8 hr reperfusion) |
| --- | --- | --- | --- | --- | --- | --- | --- | --- | --- |
| Cc1cc(C(C#N)c2ccc(Cl)cc2)c(Cl)cc1NC(=O)c1cc(Cl)ccc1O (stereo not drawn) [ZT-1a, 5-chloro-N-(5-chloro-4-((4-chlorophenyl)(cyano)methyl)-2-methylphenyl)-2-hydroxy-benzamide] | 3.49 | did not disrupt | neither drug reduced | 55±3.6 | 50.4±27.0 | ~35 | 36 to 50 |  |  |
| Cc1cc(C(C#N)c2ccc(Cl)cc2)c(Cl)cc1NC(=O)c1cc(I)cc(I)c1O (stereo not drawn) [Closantel] | < 3.00 | did not disrupt | neither drug reduced |  |  |  |  | ineffective | dose-dependently reduced |
